Test results from ChEMBL document CHEMBL5543127, “Design, Synthesis, and Biological Evaluation of 2-Phenoxyalkylhydrazide Benzoxazole Derivatives as Quorum Sensing Inhibitors with Strong Antibiofilm Effect” (J Med Chem, 2024).
Values after ≈ are worked out from the molar mass of the structure shown. Active and inactive are the calls of the source. No cut-off for these calls is given here.

Tests used:
[1] = test system: Pseudomonas aeruginosa; test: Anti-microbial activity against penicillin-susceptible Pseudomonas aeruginosa 27853 incubated for 20 hrs By CLSI based micro-dilution method; format: functional
[2] = test system: Escherichia coli; test: Anti-microbial activity against penicillin-susceptible Escherichia coli ATCC25922 incubated for 20 hrs By CLSI based micro-dilution method; format: functional
[3] = Inhibition of quorum sensing system in Pseudomonas aeruginosa PAO1 at logarithmic growth period assessed as inhibition of pyocyanin production at 102.4 microg/ml incubated for 18 hrs by pyocyanin inhibition assay; conditions: dose 102.4 µg/ml
[4] = test system: Bacillus subtilis; test: Anti-microbial activity against Bacillus subtilis ATCC9372 incubated for 20 hrs By CLSI based micro-dilution method; format: functional
[5] = test system: Staphylococcus aureus; test: Anti-microbial activity against erythromycin-susceptible Staphylococcus aureus ATCC25923 incubated for 20 hrs By CLSI based micro-dilution method; format: functional
[6] = test system: Bacillus pumilus; test: Anti-microbial activity against Bacillus pumilus CMCC63202 incubated for 20 hrs By CLSI based micro-dilution method; format: functional
[7] = test system: Pseudomonas aeruginosa; test: Anti-microbial activity against Pseudomonas aeruginosa PAO1 incubated for 20 hrs By CLSI based micro-dilution method; format: functional
[8] = test system: Staphylococcus aureus; test: Anti-microbial activity against methicillin-resistant Staphylococcus aureus ATCC43300 incubated for 20 hrs By CLSI based micro-dilution method; format: functional

SMILES | MIC [1] | MIC [2] | inhibition [3] | MIC [4] | MIC [5] | MIC [6] | MIC [7] | MIC [8]
CCCCCCCCCC(=O)N/N=c1\sc2ccccc2n1C | > 512 µg/mL | > 512 µg/mL | Active | 512 µg/mL (≈ 1540 µM) | 512 µg/mL (≈ 1540 µM) | > 512 µg/mL | > 512 µg/mL | > 512 µg/mL
CC(C)c1ccc(/C=N/Nc2nc3ccccc3o2)cc1 | > 512 µg/mL | > 512 µg/mL | inactive | 512 µg/mL (≈ 1830 µM) | 64 µg/mL (≈ 229 µM) | 512 µg/mL (≈ 1830 µM) | > 512 µg/mL | 256 µg/mL (≈ 916 µM)
Cn1c(=NNC(=O)CCCCOc2ccc(Cl)cc2)sc2ccccc21 | > 512 µg/mL | > 512 µg/mL | Active | 512 µg/mL (≈ 1310 µM) | 256 µg/mL (≈ 657 µM) | 256 µg/mL (≈ 657 µM) | > 512 µg/mL | –
CCCCC(=O)N/N=c1\sc2ccccc2n1C | > 512 µg/mL | > 512 µg/mL | Active | > 512 µg/mL | 512 µg/mL (≈ 1940 µM) | > 512 µg/mL | > 512 µg/mL | > 512 µg/mL
Cc1cccc(C(=O)NNc2nc3ccccc3s2)c1 | 512 µg/mL (≈ 1810 µM) | > 512 µg/mL | 62.8% | 512 µg/mL (≈ 1810 µM) | > 512 µg/mL | 512 µg/mL (≈ 1810 µM) | > 512 µg/mL | > 512 µg/mL
Cn1c(=NNC(=O)CCCCOc2ccc(F)cc2)sc2ccccc21 | > 512 µg/mL | > 512 µg/mL | Active | 512 µg/mL (≈ 1370 µM) | – | 256 µg/mL (≈ 685 µM) | > 512 µg/mL | –
COc1ccccc1C(=O)N/N=c1\sc2ccccc2n1C | > 512 µg/mL | > 512 µg/mL | – | > 512 µg/mL | > 512 µg/mL | > 512 µg/mL | > 512 µg/mL | > 512 µg/mL
Cc1cccc(C(=O)N/N=c2\sc3ccccc3n2C)c1 | > 512 µg/mL | > 512 µg/mL | – | 512 µg/mL (≈ 1720 µM) | > 512 µg/mL | > 512 µg/mL | > 512 µg/mL | > 512 µg/mL
CC[C@H]1OC(=O)[C@H](C)[C@@H](O[C@H]2C[C@@](C)(OC)[C@@H](O)[C@H](C)O2)[C@H](C)[C@@H](O[C@@H]2O[C@H](C)C[C@H](N(C)C)[C@H]2O)[C@](C)(OC)C[C@@H](C)C(=O)[C@H](C)[C@@H](O)[C@]1(C)O [CLARITHROMYCIN] | 128 µg/mL (≈ 171 µM) | 128 µg/mL (≈ 171 µM) | – | 0.25 µg/mL (≈ 0.334 µM) | 0.25 µg/mL (≈ 0.334 µM) | 0.25 µg/mL (≈ 0.334 µM) | 256 µg/mL (≈ 342 µM) | 16 µg/mL (≈ 21.4 µM)
Clc1ccc(/C=N/Nc2nc3ccccc3o2)cc1Cl | > 512 µg/mL | > 512 µg/mL | inactive | 512 µg/mL (≈ 1670 µM) | 64 µg/mL (≈ 209 µM) | > 512 µg/mL | > 512 µg/mL | 512 µg/mL (≈ 1670 µM)
O=[N+]([O-])c1ccccc1/C=N/Nc1nc2ccccc2o1 | > 512 µg/mL | > 512 µg/mL | inactive | 512 µg/mL (≈ 1810 µM) | 128 µg/mL (≈ 453 µM) | 256 µg/mL (≈ 907 µM) | 256 µg/mL (≈ 907 µM) | 256 µg/mL (≈ 907 µM)
O=C(NNc1nc2ccccc2s1)c1cccc(Cl)c1 | 512 µg/mL (≈ 1690 µM) | > 512 µg/mL | – | 512 µg/mL (≈ 1690 µM) | > 512 µg/mL | 256 µg/mL (≈ 843 µM) | > 512 µg/mL | 128 µg/mL (≈ 421 µM)
CCCCCC(=O)N/N=c1\sc2ccccc2n1C | > 512 µg/mL | > 512 µg/mL | – | > 512 µg/mL | 256 µg/mL (≈ 923 µM) | > 512 µg/mL | > 512 µg/mL | > 512 µg/mL
O=C(NNc1nc2ccccc2s1)c1ccc(F)cc1 | 512 µg/mL (≈ 1780 µM) | > 512 µg/mL | – | 512 µg/mL (≈ 1780 µM) | > 512 µg/mL | > 512 µg/mL | > 512 µg/mL | 256 µg/mL (≈ 891 µM)
CCCCCCC(=O)N/N=c1\sc2ccccc2n1C | > 512 µg/mL | > 512 µg/mL | – | > 512 µg/mL | > 512 µg/mL | > 512 µg/mL | > 512 µg/mL | > 512 µg/mL
Cc1ccc(C(=O)N/N=c2\sc3ccccc3n2C)cc1 | > 512 µg/mL | > 512 µg/mL | – | > 512 µg/mL | > 512 µg/mL | > 512 µg/mL | > 512 µg/mL | > 512 µg/mL
